For 16 compounds, T/C results are on record in PubChem BioAssay AID248 (DTP/NCI, 2004).

Inconclusive results and toxic doses are left out.

The experiment relates to L1210 leukemia ip in BDF1 mice, survival T/C. In words: NCI In Vivo Anticancer Drug Screen. Data for tumor model L1210 Leukemia (intraperitoneal) in B6D2F1 (BDF1) mice. The conditions noted are these: endpoint: mean survival time, higher = longer survival. The method, boiled down:
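Antitumor effect is assessed in tumor-bearing animals. Survival in the compound arm is compared with a vehicle-dosed control arm and expressed as their quotient.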

[1] abbreviates: dose: 50.0 mg/kg/injection, schedule: Q01DX001 (ip), vehicle: carboxymethylcellulose (CMC).
Setting [2] is: dose: 100.0 mg/kg/injection, schedule: Q01DX001 (ip), vehicle: carboxymethylcellulose (CMC).
Where [3] appears, read: dose: 200.0 mg/kg/injection, schedule: Q01DX001 (ip), vehicle: carboxymethylcellulose (CMC).
The mark [4] stands for this setting: dose: 200.0 mg/kg/injection, schedule: Q01DX001 (ip), vehicle: saline.
Setting [5] is: dose: 100.0 mg/kg/injection, schedule: Q01DX009 (ip), vehicle: saline with Tween-80.
Where [6] appears, read: dose: 100.0 mg/kg/injection, schedule: Q04DX003 (ip), vehicle: saline with Tween-80.
[7] abbreviates: dose: 200.0 mg/kg/injection, schedule: Q01DX009 (ip), vehicle: saline with Tween-80.
Setting [8] is: dose: 200.0 mg/kg/injection, schedule: Q04DX003 (ip), vehicle: saline with Tween-80.
Setting [9] is: dose: 400.0 mg/kg/injection, schedule: Q01DX009 (ip), vehicle: saline with Tween-80.
Where [10] appears, read: dose: 400.0 mg/kg/injection, schedule: Q04DX003 (ip), vehicle: saline with Tween-80.
The mark [11] stands for this setting: dose: 100.0 mg/kg/injection, schedule: Q04DX003 (ip), vehicle: Klucel (hydroxypropylcellulose) (HPC).
The mark [12] stands for this setting: dose: 200.0 mg/kg/injection, schedule: Q04DX003 (ip), vehicle: Klucel (hydroxypropylcellulose) (HPC).
The mark [13] stands for this setting: dose: 400.0 mg/kg/injection, schedule: Q04DX003 (ip), vehicle: Klucel (hydroxypropylcellulose) (HPC).

For `COc1cc(C=Nc2cccc(F)c2)ccc1N(CCCl)CCCl`, the T/C by setting is: (dose: 2.5 mg/kg/injection, schedule: Q01DX009 (ip), vehicle: carboxymethylcellulose (CMC)) 96 % of control; (dose: 5.0 mg/kg/injection, schedule: Q01DX009 (ip), vehicle: carboxymethylcellulose (CMC)) 104 % of control; (dose: 10.0 mg/kg/injection, schedule: Q01DX009 (ip), vehicle: acetone) 118 % of control; (dose: 10.0 mg/kg/injection, schedule: Q01DX009 (ip), vehicle: carboxymethylcellulose (CMC)) 108 % of control; (dose: 45.0 mg/kg/injection, schedule: Q01DX001 (ip), vehicle: saline) 110 % of control; under setting [1], 101 % of control. In addition, the T/C is, setting by setting: (dose: 67.0 mg/kg/injection, schedule: Q01DX001 (ip), vehicle: saline) 115 % of control; under setting [2], 98 % of control; under setting [3], 103 % of control; under setting [4], 152 % of control.
For `COc1ccc(Cc2cc3cc(OC)c(OC)cc3cn2)cc1OC`, the T/C by setting is: under setting [5], 103 % of control; under setting [6], 93 % of control; under setting [7], 105 % of control; under setting [8], 104 % of control; under setting [9], 121 % of control; under setting [10], 90 % of control.
As for `O=C1C(=O)c2ccccc2C(O)=C1C(C1=C(O)c2ccccc2C(=O)C1=O)c1ccc(Cl)c(Cl)c1`, for the setting “dose: 75.0 mg/kg/injection, schedule: Q01DX001 (ip), vehicle: carboxymethylcellulose (CMC)”, the T/C is 94 % of control.
With `C(=Nc1ccccc1)c1ccc[nH]1`, the T/C runs as follows: under setting [6], 100 % of control; under setting [8], 93 % of control; under setting [10], 96 % of control.
`CCOC(=O)C1(c2cc(NS(=O)(=O)c3ccccc3)ccc2O)CCCCC1=O` (stereo not given): the T/C by setting is: (dose: 50.0 mg/kg/injection, schedule: Q01DX001 (ip), vehicle: saline sonified) 97 % of control; (dose: 100.0 mg/kg/injection, schedule: Q01DX001 (ip), vehicle: saline sonified) 93 % of control; (dose: 200.0 mg/kg/injection, schedule: Q01DX001 (ip), vehicle: saline sonified) 94 % of control.
Regarding `BrC12CC3CC(C1)CC(Br)(C3)C2`, the T/C runs as follows: under setting [1], 96 % of control; under setting [2], 93 % of control; under setting [3], 93 % of control; (dose: 400.0 mg/kg/injection, schedule: Q01DX001 (ip), vehicle: carboxymethylcellulose (CMC)) 102 % of control.
Turning to `Nc1ccccc1Sc1ccc(Br)cc1[N+](=O)[O-]`, the T/C reads like this: (dose: 37.5 mg/kg/injection, schedule: Q04DX003 (ip), vehicle: saline) 98 % of control; (dose: 75.0 mg/kg/injection, schedule: Q04DX003 (ip), vehicle: saline) 102 % of control; (dose: 150.0 mg/kg/injection, schedule: Q04DX003 (ip), vehicle: saline) 93 % of control.
For `Fc1ccc2[nH]c3c(c2c1)CP(c1ccccc1)CC3` (stereo not given), the T/C reads like this: under setting [11], 100 % of control; under setting [12], 96 % of control; under setting [13], 105 % of control.
Consider `[Cl][Hg][Cl].c1cnccn1`, for which the T/C is, setting by setting: (dose: 1.0 mg/kg/injection, schedule: Q01DX009 (ip), vehicle: saline with Tween-80) 105 % of control; (dose: 2.0 mg/kg/injection, schedule: Q01DX009 (ip), vehicle: saline with Tween-80) 93 % of control; (dose: 4.0 mg/kg/injection, schedule: Q01DX009 (ip), vehicle: saline with Tween-80) 105 % of control; (dose: 8.0 mg/kg/injection, schedule: Q04DX003 (ip), vehicle: saline with Tween-80) 88 % of control.
Turning to `CCCCCCC#CC(=O)O`, the T/C is 103 % of control (dose: 100.0 mg/kg/injection, schedule: Q01DX009 (sc), vehicle: olive oil, sesame oil, peanut oil); 97 % of control (dose: 100.0 mg/kg/injection, schedule: Q04DX003 (sc), vehicle: olive oil, sesame oil, peanut oil); 108 % of control (dose: 200.0 mg/kg/injection, schedule: Q01DX009 (sc), vehicle: olive oil, sesame oil, peanut oil); 106 % of control (dose: 200.0 mg/kg/injection, schedule: Q04DX003 (sc), vehicle: olive oil, sesame oil, peanut oil); 95 % of control (dose: 400.0 mg/kg/injection, schedule: Q01DX009 (sc), vehicle: olive oil, sesame oil, peanut oil); 108 % of control (dose: 400.0 mg/kg/injection, schedule: Q04DX003 (sc), vehicle: olive oil, sesame oil, peanut oil).
As for `O=C(NCCCOc1ccc([N+](=O)[O-])cc1Cl)Nc1cccc(S(=O)(=O)F)c1`, the T/C (dose: 100.0 mg/kg/injection, schedule: Q01DX009 (ip), vehicle: Klucel (hydroxypropylcellulose) (HPC)) was 92 % of control; the T/C under setting [11] was 106 % of control; the T/C (dose: 200.0 mg/kg/injection, schedule: Q01DX009 (ip), vehicle: Klucel (hydroxypropylcellulose) (HPC)) is 98 % of control; the T/C under setting [12] was 103 % of control; the T/C (dose: 400.0 mg/kg/injection, schedule: Q01DX009 (ip), vehicle: Klucel (hydroxypropylcellulose) (HPC)) is 103 % of control; the T/C under setting [13] was 95 % of control.
Take `CC(=O)OC1CCC2(C)C(=CCC3C2CCC2(C)C3CC3C(c4ccccc4)=NN(c4ccccc4)C32C#N)C1` (stereo not given): the T/C is 103 % of control (dose: 100.0 mg/kg/injection, schedule: Q04DX002 (ip), vehicle: Klucel (hydroxypropylcellulose) (HPC)); 92 % of control (dose: 200.0 mg/kg/injection, schedule: Q04DX002 (ip), vehicle: Klucel (hydroxypropylcellulose) (HPC)); 98 % of control (dose: 400.0 mg/kg/injection, schedule: Q04DX002 (ip), vehicle: Klucel (hydroxypropylcellulose) (HPC)).
Consider `COc1ccc(/C=C2\NC(=O)NC2=O)cc1`, for which the T/C (dose: 100.0 mg/kg/injection, schedule: Q01DX001 (ip), vehicle: saline) is 98 % of control; the T/C under setting [4] was 93 % of control; the T/C (dose: 400.0 mg/kg/injection, schedule: Q01DX001 (ip), vehicle: saline) is 95 % of control.
Turning to `CC1(C)N=C(N)N=C(N)N1c1ccc(CCC(=O)Nc2ccc(S(=O)(=O)F)cc2)cc1`, the T/C (dose: 0.8 mg/kg/injection, schedule: Q01DX009 (ip), vehicle: saline) was 97 % of control; the T/C (dose: 4.0 mg/kg/injection, schedule: Q01DX009 (ip), vehicle: saline) is 105 % of control; the T/C (dose: 8.8 mg/kg/injection, schedule: Q01DX009 (ip), vehicle: saline) was 117 % of control; the T/C (dose: 13.0 mg/kg/injection, schedule: Q01DX009 (ip), vehicle: saline) was 121 % of control; the T/C (dose: 20.0 mg/kg/injection, schedule: Q01DX009 (ip), vehicle: saline) was 121 % of control; the T/C (dose: 50.0 mg/kg/injection, schedule: Q01DX009 (ip), vehicle: saline) is 163 % of control. Also, the T/C was 122 % of control (dose: 75.0 mg/kg/injection, schedule: Q## X003 (ip), vehicle: saline); 100 % of control (dose: 200.0 mg/kg/injection, schedule: Q01DX009 (ip), vehicle: saline); 102 % of control (dose: 600.0 mg/kg/injection, schedule: Q## X003 (ip), vehicle: saline).
For `Fc1cc(F)c(F)c(Oc2c(F)c(F)c(-c3c(F)c(F)c(F)c(F)c3F)c(F)c2F)c1F`, the T/C by setting is: under setting [5], 104 % of control; under setting [7], 90 % of control; under setting [9], 101 % of control.
On to `N#C[CH2][Sn]([I])([c]1ccccc1)[c]1ccccc1`, for which the T/C runs as follows: (dose: 12.5 mg/kg/injection, schedule: Q04DX002 (ip), vehicle: saline with Tween-80) 100 % of control; (dose: 25.0 mg/kg/injection, schedule: Q04DX002 (ip), vehicle: saline with Tween-80) 107 % of control; (dose: 50.0 mg/kg/injection, schedule: Q04DX002 (ip), vehicle: saline with Tween-80) 91 % of control.
